# Results as given in patent US9783573B2, “IAP antagonists” (BRISTOL-MYERS SQUIBB COMPANY, priority 2012, dated 2017).
# How the values were obtained:
# [1] = target: His-BIR3 (241-356, XIAP) (Homo sapiens (Human), UniProt P98170); assay: XIAP-BIR3/SMAC Homogeneous Time Resolved Fluorescence (HTRF) Assay; assay type: binding; conditions: fluorescein labeled SMAC peptide
# Method: B. XIAP-BIR3/SMAC Homogeneous Time Resolved Fluorescence (HTRF) Assay
# (§1) Assays were performed in black, flat-bottom, 384-well plates.
# [2] = target: His-BIR2-3 (125-356, C202A/C213G, XIAP) (Homo sapiens (Human), UniProt P98170, C202A/C213G); assay: XIAP-BIR2-3 Dimeric SMAC Peptide Homogeneous Time Resolved Fluorescence (HTRF) Assay; assay type: binding; conditions: fluorescein labeled dimeric SMAC peptide
# Method: D. XIAP-BIR2-3 Dimeric SMAC Peptide Homogeneous Time Resolved Fluorescence (HTRF) Assay
# as §1
Structure (SMILES),IC50 [1],IC50 [2]
"CN[C@@H](C)C(=O)N[C@H](C(=O)N1Cc2cc(C(=O)Nc3ccc4cc(C(=O)N[C@H]5C[C@@H](C(=O)N[C@@H]6CCCc7ccccc76)N(C(=O)[C@@H](NC(=O)[C@H](C)NC)C(C)(C)C)C5)[nH]c4c3)ccc2C[C@H]1C(=O)N[C@@H]1CCCc2ccccc21)C(C)(C)C [Example 24, (S)-2-((S)-3,3-Dimethyl-2-((S)-2-(methylamino)propanamido)butanoyl)-N^7-(2-(((3S,5S)-1-((S)-3,3-dimethyl-2-((S)-2-(methylamino)propanamido)butanoyl)-5-(((R)-1,2,3,4-tetrahydronaphthalen-1-yl)carbamoyl)pyrrolidin-3-yl)carbamoyl)-1H-indol-6-yl)-N^3-((R)-1,2,3,4-tetrahydronaphthalen-1-yl)-1,2,3,4-tetrahydroisoquinoline-3,7-dicarboxamide]",93 nM,33 nM
CCN[C@@H](C)C(=O)N[C@H](C(=O)N1Cc2cc(OCc3ccc(C(=O)NC4C[C@@H](C(=O)NC5CCCc6ccccc65)N(C(=O)[C@@H](NC(=O)[C@H](C)NC)C(C)(C)C)C4)cc3)ccc2C[C@H]1C(=O)NC1CCCc2ccccc21)C(C)(C)C (stereo partly drawn) [Example 39],89 nM,65 nM
"CN[C@@H](C)C(=O)N[C@H](C(=O)N1Cc2cc(NC(=O)c3ccc4c(ccn4C(=O)N[C@H]4C[C@@H](C(=O)N[C@@H]5CCCc6ccccc65)N(C(=O)[C@@H](NC(=O)[C@H](C)NC)C(C)(C)C)C4)c3)ccc2C[C@H]1C(=O)N[C@@H]1CCCc2ccccc21)C(C)(C)C [Example 49, N^5—((S)-2-((S)-3,3-Dimethyl-2-((S)-2-(methylamino)propanamido)butanoyl)-3-(((R)-1,2,3,4-tetrahydronaphthalen-1-yl)carbamoyl)-1,2,3,4-tetrahydroisoquinolin-7-yl)-N^1-((3S,5S)-1-((S)-3,3-dimethyl-2-((S)-2-(methylamino)propanamido)butanoyl)-5-(((R)-1,2,3,4-tetrahydronaphthalen-1-yl)carbamoyl)pyrrolidin-3-yl)-1H-indole-1,5-dicarboxamide]",51 nM,22 nM
CN[C@@H](C)C(=O)N[C@H](C(=O)N1Cc2cc(NC(=O)c3cccc4c3ccn4C(=O)N[C@H]3C[C@@H](C(=O)N[C@@H]4CCCc5ccccc54)N(C(=O)[C@@H](NC(=O)[C@H](C)NC)C(C)(C)C)C3)ccc2C[C@H]1C(=O)N[C@H](C)c1ccccc1F)C(C)(C)C [Example 51],54 nM,27 nM
"CN[C@@H](C)C(=O)N[C@H](C(=O)N1Cc2cc(NC(=O)c3cccc4c3ccn4C(=O)N[C@H]3C[C@@H](C(=O)N[C@@H]4CCCc5ccccc54)N(C(=O)[C@@H](NC(=O)[C@H](C)NC)C(C)(C)C)C3)ccc2C[C@H]1C(=O)N[C@@H]1CCCc2ccccc21)C(C)(C)C [Example 54, N^4-((S)-2-((S)-3,3-Dimethyl-2-((S)-2-(methylamino)propanamido)butanoyl)-3-(((R)-1,2,3,4-tetrahydronaphthalen-1-yl)carbamoyl)-1,2,3,4-tetrahydroisoquinolin-7-yl)-N^1-((3S,5S)-1-((S)-3,3-dimethyl-2-((S)-2-(methylamino)propanamido)butanoyl)-5-(((R)-1,2,3,4-tetrahydronaphthalen-1-yl)carbamoyl)pyrrolidin-3-yl)-1H-indole-1,4-dicarboxamide]",76 nM,21 nM
"CN[C@@H](C)C(=O)N[C@H](C(=O)N1C[C@@H](NC(=O)c2ccc(C(=O)Nc3ccc4c(c3)CN(C(=O)[C@@H](NC(=O)[C@H](C)NC)C(C)(C)SC)[C@H](C(=O)N[C@@H]3CCCc5ccccc53)C4)cc2)C[C@H]1C(=O)N[C@@H]1CCCc2ccccc21)C(C)(C)C [Example 55, N^1-((3S,5S)-1-((S)-3,3-Dimethyl-2-((S)-2-(methylamino)propanamido)butanoyl)-5-(((R)-1,2,3,4-tetrahydronaphthalen-1-yl)carbamoyl)pyrrolidin-3-yl)-N^4—((S)-2-((R)-3-methyl-2-((S)-2-(methylamino)propanamido)-3-(methylthio)butanoyl)-3-(((R)-1,2,3,4-tetrahydronaphthalen-1-yl)carbamoyl)-1,2,3,4-tetrahydroisoquinolin-7-yl)terephthalamide]",9 nM,4 nM
"CN[C@@H](C)C(=O)N[C@H](C(=O)N1C[C@@H](NC(=O)c2ccc(C(=O)Nc3ccc4c(c3)CN(C(=O)[C@@H](NC(=O)[C@H](C)NC)C(C)(C)SCC(=O)OC)[C@H](C(=O)N[C@@H]3CCCc5ccccc53)C4)cc2)C[C@H]1C(=O)N[C@@H]1CCCc2ccccc21)C(C)(C)C [Example 56, Methyl 2-(((R)-4-((S)-7-(4-(((3S,5S)-1-((S)-3,3-dimethyl-2-((S)-2-(methylamino)propanamido)butanoyl)-5-(((R)-1,2,3,4-tetrahydronaphthalen-1-yl)carbamoyl)pyrrolidin-3-yl)carbamoyl)benzamido)-3-(((R)-1,2,3,4-tetrahydronaphthalen-1-yl)carbamoyl)-3,4-dihydroisoquinolin-2(1H)-yl)-2-methyl-3-((S)-2-(methylamino)propanamido)-4-oxobutan-2-yl)thio)acetate]",17 nM,12 nM
"CN[C@@H](C)C(=O)N[C@H](C(=O)N1C[C@@H](NC(=O)c2ccc(C(=O)Nc3ccc4c(c3)CN(C(=O)[C@@H](NC(=O)[C@H](C)NC)C(C)(C)SCC(=O)O)[C@H](C(=O)N[C@@H]3CCCc5ccccc53)C4)cc2)C[C@H]1C(=O)N[C@@H]1CCCc2ccccc21)C(C)(C)C [Example 57, 2-(((R)-4-((S)-7-(4-(((3S,5S)-1-((S)-3,3-Dimethyl-2-((S)-2-(methylamino)propanamido)butanoyl)-5-(((R)-1,2,3,4-tetrahydronaphthalen-1-yl)carbamoyl)pyrrolidin-3-yl)carbamoyl)benzamido)-3-(((R)-1,2,3,4-tetrahydronaphthalen-1-yl)carbamoyl)-3,4-dihydroisoquinolin-2(1H)-yl)-2-methyl-3-((S)-2-(methylamino)propanamido)-4-oxobutan-2-yl)thio)acetic acid]",10 nM,6 nM
"CN[C@@H](C)C(=O)N[C@H](C(=O)N1C[C@@H](NC(=O)c2ccc(C(=O)Nc3ccc4c(c3)CN(C(=O)[C@@H](NC(=O)[C@H](C)NC)C(C)(C)SCC(=O)N3CCCCC3)[C@H](C(=O)N[C@@H]3CCCc5ccccc53)C4)cc2)C[C@H]1C(=O)N[C@@H]1CCCc2ccccc21)C(C)(C)C [Example 58, N^1-((3S,5S)-1-((S)-3,3-Dimethyl-2-((S)-2-(methylamino)propanamido)butanoyl)-5-(((R)-1,2,3,4-tetrahydronaphthalen-1-yl)carbamoyl)pyrrolidin-3-yl)-N^4—((S)-2-((R)-3-methyl-2-((S)-2-(methylamino)propanamido)-3-((2-oxo-2-(piperidin-1-yl)ethyl)thio)butanoyl)-3-(((R)-1,2,3,4-tetrahydronaphthalen-1-yl)carbamoyl)-1,2,3,4-tetrahydroisoquinolin-7-yl)terephthalamide]",27 nM,18 nM
